{
  "source": "patent US8975234B2",
  "about": "“Anti-bacterial infection, inflammation, and leukemia composition and use thereof” (priority 2011, dated 2015)",
  "key": {"[1]": {"system": "K-562 cells", "experiment": "DNA ladder test", "assay_type": "cell-based, human", "conditions": "48 hours, different concentrations", "method": "K-562 cells treated with Tellimagrandin II were collected for electrophoresis to identify any DNA fragmentation.\nA total of 3 mL cell solution at the concentration of 1×10^6 K-562 cells per mL was cultured with 6 cm cell culture plates in an incubator supplied with 5% CO2 at 37° C. for 30 minutes so that cells could adapt to the environment. Tellimagrandin II solutions of different concentrations were added by order so that the final concentrations are 0, 20, 30, 40, 50 and 60 μM respectively. The solution was placed in incubator with 5% CO2 at 37° C. for 48 hours before being centrifuged at 2,500 rpm at 4° C. for 5 minutes. After removing the supernatant, it's rinsed by PBS once. Then, cell lysis buffer 100 μL (1% NP-40 dissolved in […], pH 8.0) was added and the solution was shaken at high speed for 10 seconds.\nThe solution was centrifuged at 3,500 rpm for 5 minutes before 90 μL supernatant was collected and mixed properly with SDS solution 10 μL. RNase A (4 mg/mL) 50 μL was added into the mixed solution then placed in water bath at 56° C. for one hour to remove RNA. Proteinase K (10 mg/mL) 30 μL was then added before another one hour in the water bath at 56° C. to remove protein. […]"}, "[2]": {"system": "K-562 cells", "experiment": "Cell cycle analyses by flow cytometry", "assay_type": "cell-based, human", "conditions": "0-50 μM", "method": "K-562 cells were plated in 15 cm dish at a density of 5×10^5 cells/mL (15 mL) and incubated at 37° C. with 5% CO2 for 16˜18 hours. Cells were collected and centrifuged at 700 rpm for 3 minutes at room temperature, and resuspended in culture medium containing 0.04% fetal bovine serum and 8 mM L-glutamine. Then, cells were incubated at 37° C. with 5% CO2 for 16˜18 hours.\nCollected above cells and plated in 3 cm dishes at an initial density of 5×10^5 cells/mL (3 mL). Cells were treated with Tellimagrandin II to final concentrations of 0, 10, 20, 30, 40 and 50 μM, and then incubated at 37° C. with 5% CO2 for 12 and 24 hours.\nCells were centrifuged at a speed of 700 rpm for 5 min at 4° C. and washed once with PBS. Cells were fixed by drop-wise addition of 70% ethanol into the cell suspension. After 16˜18 hours, the ethanol-suspended cells were centrifuged at a speed of […] for 5 minutes at 4° C. and the ethanol decanted thoroughly. Cells were resuspended in PBS containing RNase A (10 μg/mL) and 1% Triton X-100 and incubated at 37° C. in a 5% CO2 incubator for 30 minutes to 1 hour. For propidium iodide (PI) staining, cells were centrifuged at 3,500 rpm for 5 minutes at room temperature and resuspended in 600 μL PBS. 25 μL of PI (20 μg/mL) solution was added to the mixture and incubated at room temperature in the dark for 1 hour. […]"}, "[3]": {"system": "LPS-induced NO in RAW264.7 cells", "experiment": "NO production analysis (Griess reagent)", "assay_type": "cell-based, mouse", "conditions": "before or after LPS, 25 and 50 μM statistically significant", "method": "Murine macrophage cells were plated in each well on a 12-well plate at a density of about 4×10^5 RAW264.7 cells/mL. After overnight incubation, cells were serum starved in DMEM medium containing 2% Fetal Bovine Serum (FBS) for 3 hours. […] Endogenous NO production, induced by LPS. Cells were treated with Tellimagrandin II at various concentrations (10, 25 and 50 μM) before and after being treated with LPS. For NO production analysis, culture supernatants were brought to 96-well plate and mixed with Griess reagent. Plates were incubated and then the absorbance was measured at 520 nm. Sodium nitrite (NaNO2) solution (0 M˜0.1 M, 8 points) prepared in DMEM was used to generate a standard curve. The nitrite concentrations of samples were determined by interpolation from the standard curve. […] FIG. 10 is framed by a an x-axis labeled the relative order in LPS or Tellimagrandin II treatment and concentrations, and y-axis labeled NO concentration. The control (LPS only) and test groups were compared using a t-test, *p<0.05 (significant) and #p<0.01 (highly significant)."}, "[4]": {"system": "K-562 cells", "experiment": "ROS test (DCF-DA)", "assay_type": "cell-based, human", "conditions": "40 μM; 2 hours", "method": "A radical specific fluorescent dye, 2′,7′-dichlorofluorescein (DCF-DA) was used to detect H2O2/NO-based radicals or O2— in cells respectively.\nA total of 3 mL cell solution at the concentration of 1×10^6 K-562 cells per mL was cultured with 6 cm cell culture plates in an incubator supplied with 5% CO2 at 37° C. for 30 minutes so that cells could adapt to the environment. Tellimagrandin II solutions of different concentrations were added by order so that the final concentrations are 0, 30, 40 and 50 μM respectively. The solution was placed in incubator with 5% CO2 at 37° C. for 2 hours before being centrifuged at 3,500 rpm at 4° C. for 5 minutes and then being rinsed by PBS once. 2′,7′-dichlorofluorescein (DCF-DA) was added before the solution was put into dark incubator for 45 minutes and then rinsed by PBS once again. Finally, 1 mL PBS was used to resuspend the cells before BD FACScan was used to detect the fluorescent signal."}, "[5]": {"system": "MRSA 19615", "experiment": "Minimum inhibitory concentration (broth microdilution) and FIC index", "assay_type": "cell-based, Staphylococcus aureus", "conditions": "Staphylococcus aureus, MRSA, read-out: Minimum inhibitory concentration"}, "[6]": {"system": "MRSA 18271", "experiment": "Minimum inhibitory concentration (broth microdilution) and FIC index", "assay_type": "cell-based, Staphylococcus aureus", "conditions": "Staphylococcus aureus, MRSA, read-out: Minimum inhibitory concentration"}},
  "data": [
    {"molecule": "O=C(OC1O[C@@H]2COC(=O)c3cc(O)c(O)c(O)c3-c3c(cc(O)c(O)c3O)C(=O)O[C@H]2[C@H](OC(=O)c2cc(O)c(O)c(O)c2)[C@H]1OC(=O)c1cc(O)c(O)c(O)c1)c1cc(O)c(O)c(O)c1", "note": "(stereo partly drawn) [Tellimagrandin II]", "values": [
      {"measurement": "DNA fragmentation, DNA ladder electrophoresis", "setting": "[1]", "value": "DNA fragmentation occurred"},
      {"measurement": "percentage of the sub-G1 and G2/M-phase cells", "setting": "[2]", "value": "increased in Tellimagrandin II treatments dose-dependently"},
      {"measurement": "production of LPS-induced NO", "setting": "[3]", "value": "decreased the production of LPS-induced NO"},
      {"measurement": "ROS in K-562 cells", "setting": "[4]", "value": "observed to increase"},
      {"measurement": "MIC", "setting": "[5]", "value": 128, "unit": "µg/mL"},
      {"measurement": "MIC", "setting": "[6]", "value": 128, "unit": "µg/mL"}
    ]}
  ]
}
